The numbers were not newly measured in patent US11575141B2 (Robert Bosch GmbH, priority 2020, dated 2023), which cites them from elsewhere.

Where two headings read alike, the source gives them in different places.

As for `O=P(O)(O)P(=O)(O)O` [Example 2, Hypophosphoric acid], the “pKa values (pKa source in footnotes)” value reads like this: (first pKa value listed) 2.2; (fourth pKa value listed) 10.0; (second pKa value listed) 2.8; (third pKa value listed) 7.3.

Turning to `O=P(O)(O)OP(=O)(O)OP(=O)(O)O` [Example 5, Triphosphoric acid], where the note is “first pKa value listed”, the “pKa values (pKa source in footnotes)” value is listed as 0.89 ^3.

With `NP(=O)(O)O` [Example 10, Phosphoramidate], the “pKa values (pKa source in footnotes)” value (first pKa value listed) is roughly 3.4 and the “pKa values (pKa source in footnotes)” value (second pKa value listed) is listed as roughly 8.3.

Regarding `O=[PH](O)O` [Example 14, Phosphonic acid], the “pKa values (pKa source in footnotes)” value is, setting by setting: (first pKa value listed) 1.1-2.3; (second pKa value listed) 5.3-7.2.
